Laboratory results published in patent US20100204313A1, “Modulation of nerve pain activity by resiniferatoxin and uses thereof” (priority 2007, published 2010).
“Also recorded” adds a separate entry of the source.

Tests used:
gastropancreatic nerves [1] = experiment: Afferent nerve signaling to colorectal distention after intragastric resiniferatoxin; type: in vivo; conditions: rat stomach, 4 hours after intragastric resiniferatoxin vs baseline
Method: The top row represents the baseline response. Note the near complete absence of responses 4 hours after intragastric resiniferatoxin.
Resiniferatoxin is the principal active ingredient in the classic drug Euphorbium, the air-dried latex (resin) of the cactus-like plant Euphorbia resinifera. It is an ultra-potent analog of capsaicin and local application causes desensitization without prior excitation of afferent nerves that lasts for several weeks (Neubert et al, 2003; Kissin et al, 2002; Xu et al, 1997; Craft et al, 1995; Avelino et al, 1999; Acs et al, 1997; Abdel-Salam et al, 1994).

gastric emptying = experiment: Gastric emptying of solid foods after local instillation; type: in vivo, rat; conditions: 100 nM/kg, vs control
Method: These experiments were done in male rats. Resiniferatoxin was instilled at 100 nM/kg body weight, 0.6 microgm/ml, into either the stomach or jejunum. Controls received saline in the stomach. Five weeks later gastric emptying of solid foods was measured. […] The combination of faster emptying and anti-nauseant effect makes it a very appropriate treatment for gastroparesis.

afferent nerves = conditions: desensitization of afferent nerves; cited from earlier work
nociceptors = conditions: functional denervation of the pancreas; cited from earlier work
TRPV1 [2] = target: T1, TRPV1 (Rattus norvegicus, UniProt O35433); design: host or cells: living rats (sensory neurons), TNBS chronic pancreatitis model; conditions: systemic administration, chronic pancreatitis; cited from earlier work
T1 sequence (O35433 whole entry): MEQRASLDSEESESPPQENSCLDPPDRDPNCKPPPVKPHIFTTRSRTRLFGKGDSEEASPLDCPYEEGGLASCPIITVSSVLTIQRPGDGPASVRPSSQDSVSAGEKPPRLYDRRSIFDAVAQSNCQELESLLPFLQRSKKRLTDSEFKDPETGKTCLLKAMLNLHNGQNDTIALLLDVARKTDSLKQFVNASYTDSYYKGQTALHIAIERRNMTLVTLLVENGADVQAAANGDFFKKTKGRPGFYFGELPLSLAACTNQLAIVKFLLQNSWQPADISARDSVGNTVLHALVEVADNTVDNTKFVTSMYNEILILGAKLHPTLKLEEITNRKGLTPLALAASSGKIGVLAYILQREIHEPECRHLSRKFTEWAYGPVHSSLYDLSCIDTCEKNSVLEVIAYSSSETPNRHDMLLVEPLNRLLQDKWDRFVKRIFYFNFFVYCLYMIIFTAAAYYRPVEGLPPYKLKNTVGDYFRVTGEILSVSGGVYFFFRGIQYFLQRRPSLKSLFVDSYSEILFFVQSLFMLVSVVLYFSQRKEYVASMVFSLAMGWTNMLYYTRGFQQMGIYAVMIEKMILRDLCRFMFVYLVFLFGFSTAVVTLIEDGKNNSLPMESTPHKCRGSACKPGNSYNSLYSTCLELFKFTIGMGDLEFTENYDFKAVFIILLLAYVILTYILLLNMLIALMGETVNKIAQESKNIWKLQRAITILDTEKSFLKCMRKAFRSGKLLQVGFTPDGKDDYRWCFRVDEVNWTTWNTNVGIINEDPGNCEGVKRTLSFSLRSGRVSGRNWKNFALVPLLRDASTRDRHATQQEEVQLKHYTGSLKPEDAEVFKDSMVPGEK

gastropancreatic nerves [3] = tested on: gastropancreatic nerves
Method: Capsaicin dose was 0.05 mg/0.3 ml in 40% ethanol for each group (n=8 rats/group).
Transient receptor potential vanilloid type-1 activation on the gastric side of gastropancreatic nerves can trigger axonal reflexes. Based on the known interaction between alcohol and transient receptor potential vanilloid type-1, it is possible that intragastric ethanol might also stimulate these nerves. […] At the same time, there was an intra-pancreatic canula in place and recording electrodes positioned around nerve fibers in the greater splanchnic nerve that were responsive to mechanical stimulation of the pancreas. Five minutes after intragastric ethanol, capsaicin was infused into the pancreatic duct.

nocifensive behaviors = conditions: 20% ethanol 1.6 gm/kg 3 times a day for 3 days; current 2, 5 and 10 mA; vs saline TNBS rats; P<0.001
Method: Increasing amounts of electrical current were applied to the pancreas through a previously implanted electrode and the total number of nocifensive behaviors was recorded.
Control TNBS rats received an equal volume of normal saline. The next day the rats were tested for their behavioral response for pain by administering successive application of electrical current at 2, 5 and 10 mA for 5 minutes through a pair of electrodes implanted in the pancreas at the time of TNBS administration.

TRPV1 [4] = target: T1, TRPV1; conditions: in vitro, cited from earlier work
TRPV1 [5] = conditions: various tissues, capsazepine-sensitive; cited from earlier work
guinea pig bronchi = conditions: ex-vivo; sensitive to TRPV1 and tachykinin receptor blockade; cited from earlier work
guinea pig airways = conditions: intravenous 221 mg/kg or intragastric 790 mg/kg; capsazepine-sensitive; cited from earlier work
[6] = tested on: transient receptor potential vanilloid type-1 on gastric branches of dichotomous gastropancreatic nerves; experiment: Pancreatic edema (water content) after intragastric infusion with pyloric ligation; type: in vivo; conditions: intragastric infusion of 1.2 ml of 1.6 μM after pyloric ligation; pancreas harvested 30 minutes later
Method: Capsaicin was infused into the stomach after pyloric ligation and 30 minutes later the pancreas was harvested and water content was measured.
Next, the functional correlate of this anatomical convergence was determined. It was hypothesized that intragastric capsaicin will activate transient receptor potential vanilloid type-1 on gastric branches of dichotomous gastropancreatic nerves and via an axonal reflex result in edema of the pancreas. After pyloric ligation, intragastric infusion of 1.2 ml of 1.6 μM capsaicin was followed 30 minutes later by harvesting of the pancreas and measurement of water content.

TRPV1 [7] = target: T2, TRPV1 (Mus musculus, UniProt Q704Y3); conditions: mice, cited from earlier work
T2 construct: capsazepine, a selective TRPV1 antagonist, can reduce cerulein-induced pancreatitis in mice; host or cells: living mice, cerulein-induced pancreatitis
T2 sequence (Q704Y3 whole entry): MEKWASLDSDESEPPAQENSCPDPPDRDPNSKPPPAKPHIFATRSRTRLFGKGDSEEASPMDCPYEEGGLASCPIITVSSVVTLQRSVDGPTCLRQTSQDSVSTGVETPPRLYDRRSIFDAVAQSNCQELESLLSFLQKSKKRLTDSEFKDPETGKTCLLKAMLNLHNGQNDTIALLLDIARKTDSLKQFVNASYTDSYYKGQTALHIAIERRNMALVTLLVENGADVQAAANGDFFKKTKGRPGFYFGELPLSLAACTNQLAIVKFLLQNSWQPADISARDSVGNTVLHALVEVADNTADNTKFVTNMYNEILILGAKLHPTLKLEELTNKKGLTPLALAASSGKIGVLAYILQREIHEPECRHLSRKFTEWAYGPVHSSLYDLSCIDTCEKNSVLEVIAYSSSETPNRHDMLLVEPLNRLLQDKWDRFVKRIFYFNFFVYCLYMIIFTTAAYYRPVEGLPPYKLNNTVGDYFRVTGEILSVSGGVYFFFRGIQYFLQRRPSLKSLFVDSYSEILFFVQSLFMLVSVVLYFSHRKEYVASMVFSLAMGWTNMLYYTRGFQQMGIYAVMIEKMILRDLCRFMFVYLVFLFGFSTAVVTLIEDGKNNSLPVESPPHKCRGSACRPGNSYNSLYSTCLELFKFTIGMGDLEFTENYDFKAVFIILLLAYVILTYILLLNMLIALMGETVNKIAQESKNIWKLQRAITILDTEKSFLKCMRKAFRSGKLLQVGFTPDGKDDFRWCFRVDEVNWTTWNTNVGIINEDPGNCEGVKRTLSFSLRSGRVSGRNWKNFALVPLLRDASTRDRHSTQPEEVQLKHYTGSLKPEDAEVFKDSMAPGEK

In the case of `C=C(C)[C@]12C[C@@H](C)[C@@]34O[C@](Cc5ccccc5)(O[C@@H]1[C@@H]3C=C(COC(=O)Cc1ccc(O)c(OC)c1)C[C@]1(O)C(=O)C(C)=C[C@@H]41)O2` [resiniferatoxin], the “afferent nerve signaling to colorectal distention” value (gastropancreatic nerves [1]) is reported as “near complete attenuation; also recorded: nearly complete attenuation”, the “percentage of gastric emptying after 3 hours” value (gastric emptying; instilled into the jejunum five weeks prior, P=0.04, n=4) is reported as “significant increase” and the “percentage of gastric emptying after 3 hours” value (gastric emptying; instilled into the stomach five weeks prior, P=0.01, n=4 rats) is reported as “significant increase”. For the same compound, the “potency relative to capsaicin” value (afferent nerves) was 200 times and the acute experimental pancreatitis (nociceptors) was “significant attenuation”.
For `COc1cccc(NC(=O)/C=C/c2ccc(Cl)cc2)c1` [SB-366791], the “pancreatic pain behavioral response” value (TRPV1 [2]) is listed as “markedly reduced”.
With `CCO` [ethanol] the “multi-unit spike potentials after intra-pancreatic capsaicin” value (gastropancreatic nerves [3]; intragastric ethanol five minutes before capsaicin into pancreatic duct, vs intragastric saline, P<0.05, n=8 rats/group) was “significant increase”, the “gastropancreatic nerve activity, ethanol by itself” value (gastropancreatic nerves [3]; intragastric via orogastric lavage after pyloric ligation, before capsaicin) was “did not increase” and the “number of nocifensive behaviors” value (nocifensive behaviors) was “increased the number of nocifensive behaviors significantly”. The “TRPV1 stimulation, capsazepine-sensitive calcium response” value (TRPV1 [4]; trigeminal and dorsal root ganglia neurons) was “directly stimulate”, the “sensitization of dorsal root ganglia neurons to the effects of capsaicin” value (TRPV1 [4]) was “sensitize” and the “release of substance P” value (TRPV1 [5]) was “induce the release”. The contractions of bronchi (guinea pig bronchi) was “caused contractions”, the broncho-constriction (guinea pig airways) was “caused broncho-constriction” and the “plasma extravasation in the airways” value (guinea pig airways) was “increased plasma extravasation”.
For `COc1cc(CNC(=O)CCCC/C=C/C(C)C)ccc1O` [capsaicin], the “pancreatic edema (water content)” value [6] is given as “causes pancreatic edema” and the acute experimental pancreatitis (nociceptors) is given as “significant attenuation”.
In the case of `Oc1cc2c(cc1O)CN(C(=S)NCCc1ccc(Cl)cc1)CCC2` [capsazepine], the “NK1R endocytosis in acinar cells (surrogate marker for SP release)” value (TRPV1 [7]; cerulein-induced pancreatitis) is given as “reduction” and the cerulein induced pancreatitis (TRPV1 [7]) is given as “attenuate”.
